For data set [1], the system named is E. coli (MDR) b clinical isolate. The experiment in a line: MIC, agar dilution method, E. coli MDR b. To be noted: Escherichia coli; range 1-64 µg/mL, 37 °C, 18-20 h; read-out: MIC E. coli (MDR) b. The class given is cell-based. As to the method:
(§1) The selected top-scoring hits were evaluated for their antibacterial effect against two clinical multidrug-resistant strains of enterotoxigenic E. coli. Both isolates were isolated as clinical samples from Beni Suef general hospital, Beni Suef, Egypt. […] MRSA (ATCC 25529) and VRSA (clinical isolate from Beni Suef general hospital, Beni Suef, Egypt) were also used to further evaluate the tested compounds against resistant Gram-positive bacteria.
(§2) Minimum inhibitory concentrations for the test compounds were analyzed following the standard agar dilution method using Meuller-Hinton (MH) agar medium against different Gram-negative and positive bacteria (Table 1). Firstly, the tested compounds were prepared as a stock suspension with a 10 mg/mL final concentration in DMSO. Subsequently, the prepared stocks were diluted in 10 mL molten soft agar (0.5% agar) to obtain a concentration range from 1–64 µg/mL, then mixed and poured over a surface of MH agar (2% agar) plates and left for solidification. Finally, exponentially grown (O.D 600 nm of 0.6) test strains (Table 1) were diluted to a final density of 10^6 CFU/mL in MH broth and spotted (1 µL/spot) over the soft agar. Then, the plates were left for drying and incubated at 37 °C for 18–20 h. Controls were conducted using DMSO seeded soft agar. At the end of the experiment, the MIC for each compound was identified as the minimum concentration that inhibited the growth of the tested strain. The experiments were carried out in triplicates.
For orientation: In agar dilution the substance is mixed into plates at graded concentrations.

The test system of data set [2] is E. coli (MDR) a clinical isolate. The experiment in a line: MIC, agar dilution method, E. coli MDR a. To be noted: Escherichia coli; range 1-64 µg/mL, 37 °C, 18-20 h; read-out: MIC E. coli (MDR) a. Type of data set: cell-based. The protocol:
as §1, §2

Data set [3] concerns the target T1, E. coli gyrase B43 domain (Gyr-B) (Escherichia coli, UniProt P0AES6).
T1 construct: 20 μL of the enzyme (E. coli gyrase B43 domain; 20 μM concentration); purchased Inspiralis ATPG001
As to the kind of experiment: biochemical. The class given is biochemical. The protocol: (§3) Ddl-B and Gyr-B activity assays were performed according to the manufacturer protocols (ProFoldin, Catalogue No. DDA100KE, and Inspiralis, Catalogue No. ATPG001, UK).
Gyr-B assay measured the capability of the tested compounds to hinder the ATPase activity of Gyr-B subunits. This assay links the hydrolysis of ATP by gyrase to the conversion of NADH to NAD^+, which can be measured by a change in absorbance at 340 nm. The assay reactions and detection were performed using a 96-well plate. […] First, the assay mix was prepared by mixing 20 μL of the assay buffer (50 mM Tris.HCl (pH 7.5), 1 mM EDTA, 5 mM magnesium chloride, 5 mM DTT, 10% (w/v) glycerol), 1 μL phosphoenolpyruvate (80 mM in water), 1.5 μL pyruvate kinase/lactate dehydrogenase stock, 2 μL NADH (20 mM in water), and 58.8 μL water. Thereafter, 63.3 μL of assay mix and 10 μL of the test compound solution and 20 μL of the enzyme (E. coli gyrase B43 domain; 20 μM concentration) were added into the wells and mixed by pipetting. After incubation for 10 min at 25 °C, 6.7 uL of ATP (30 mM) was added to each well. After 60 min of incubation at 25 °C, the absorbance was measured at 340 nm.

Data set [4] concerns tested bacterial strains (E. coli MDR, MRSA, VRSA). As to the kind of experiment: Antibacterial evaluation, tested bacterial strains taken together. Type of data set: cell-based. To be noted: for MIC: Escherichia coli, E. coli MDR, MRSA, VRSA. As to the method:
as §1, §2

Another data set has as its system MRSA (ATCC 25529). As to the kind of experiment: MIC, agar dilution method, MRSA. Type of data set: cell-based, S. aureus. To be noted: Staphylococcus aureus; range 1-64 µg/mL, 37 °C, 18-20 h; read-out: MIC MRSA. The protocol: as §1, §2
The nature of data set [5]: Cellular toxicity against normal fibroblasts WI-38 (MTT). The class given is cell-based. The conditions noted are these: human. As to the method:
All selected top-scoring compounds were tested for their cellular toxicity against human fibroblasts cell line (WI-38). Cell line (WI-38; ATCC: CCL-75) was maintained in earth RPMI 1640 medium comprising 10% heat-inactivated fetal bovine serum (FBS) and grown at 37 °C and 5% CO2. The cell line was seeded on 96-well cell culture plates (2 × 10^4 cells/well). Cells were stimulated with tested compounds at different concentrations (from 1 to 50 µM) overnight in triplicates. Doxorubicin was used as a positive control. Cell viability was assessed by MTT assay. To normalize cell viability values, each plate included a triplicate of untreated cells considered as 100% viability, and a triplicate of cells treated with a cytotoxic mixture (200 ng/mL TNF, 200 ng/mL CD95L, 200 ng/mL TRAIL, 5 μg/mL CHX, 1% (w/v) sodium azide […]) considered as 0% viability. All other viability values were normalized according to the averages of these triplicates and analyzed by the Graph Pad Prism 5 software (La Jolla, CA, USA).

Data set [6] concerns the target T2, E. coli DAla:D-Ala ligase (Ddl-B) (Escherichia coli, UniProt P07862).
T2 construct: purchased ProFoldin DDA100KE
As to the kind of experiment: Ddl-B enzymatic activity assay (inorganic phosphate, absorbance 650 nm). The class given is biochemical. The protocol: as §3
Ddl-B enzymatic activity assay is based on measuring the inorganic phosphate generated from the D-Alanine: D-Alanine ligation reaction. The inorganic phosphate is detected by absorbance at 650 nm. The assay reactions and detection were performed by using a 96-well plate. Different concentrations of the test compounds and the reference inhibitor D-cycloserine were prepared in DMSO (from 10 µM to 1000 µM). […] Thereafter, 33 μL of 10× enzyme substrate was prepared by mixing 3.3 μL of 100× enzyme substrate with 29.7 μL of water. Finally, 27 μL of the premix with 3 μL of the 10× enzyme substrate in each well were mixed. After 60 min of incubation at 37 °C, 45 μL of MPA3000 dye was added into the 30 μL of the reaction mixture. After 5 min of incubation, absorbance was measured at 650 nm.

The next data set concerns VRSA (clinical isolate). The experiment in a line: MIC, agar dilution method, VRSA. The class given is cell-based, S. aureus. The conditions noted are these: Staphylococcus aureus, VRSA; range 1-64 µg/mL, 37 °C, 18-20 h; read-out: MIC VRSA. As to the method: as §1, §2
Setting [7] is: 10-1000 µM tested, read-out: IC50 Ddl-B.

In brackets after ≈: the same amount, converted by molar mass. Like-named read-outs stand apart in the source and are kept apart here.

In general, MIC refers to the lowest concentration that inhibits growth of the organism. As usually defined, the IC50 is the midpoint of a concentration-inhibition curve. By Ki is commonly meant a dissociation constant, usually derived from enzyme kinetics or from competition with a known ligand. The term CC50 denotes the concentration that lowers cell viability or growth by half. With `CC(C)C1=CC2=CC[C@@H]3[C@](C)(CCC[C@@]3(C)C(=O)O)[C@H]2CC1` [Abietic acid], the MIC in data set [1] is 16 µg/mL (≈ 52.9 µM); in data set [2], 64 µg/mL (≈ 212 µM); in data set [4], 16 to 64 µg/mL (≈ 52.9 to 212 µM); in the data set with MRSA (ATCC 25529) it was > 64 µg/mL; with VRSA (clinical isolate), 16 µg/mL (≈ 52.9 µM). Also, the figures for the IC50 in data set [3] and in data set [6] were 1.4 ± 0.4 µM and > 1000 µM, respectively. Also, the results for the inhibitory constant (Ki) in data set [3] and in data set [6] were 0.77 ± 0.1 µM and > 1000 µM, respectively. Further, the CC50 in data set [5] is > 50 µM. For the same compound, the “Ddl-B inhibition in words” value in data set [6] was “inactive”.

As for `O=C1c2c(O)cccc2C([C@@H]2O[C@H](CO)[C@@H](O)[C@H](O)[C@H]2O)c2cc(CO)cc(O)c21` (stereo partly drawn) [Aloin], the MIC (in data set [1]; in data set [2]; in data set [4]; with MRSA (ATCC 25529); in the data set on VRSA (clinical isolate)) was > 64 µg/mL throughout. Further, the “Gyr-B inhibition in words” value in data set [3] is “weak inhibition”. The IC50 came out at 22.4 ± 2.1 µM in data set [3] and 927 ± 7.4 µM in data set [6] (setting [7]). For the same compound, the values for the Ki in data set [3] and in data set [6] (read-out: Ki Ddl-B) were 10.5 ± 1.6 µM and 529 ± 12.3 µM, respectively. The CC50 in data set [5] (WI-38 normal fibroblast cells, WI-38, 1 to 50 µM overnight, MTT, read-out: CC50) was 34.7 ± 0.94 µM. Besides, in data set [6], the “Ddl-B inhibition in words” value is given as “weak inhibition”.

Regarding `O=C1c2ccccc2C(=O)c2ccccc21` [Anthraquinone], the MIC was > 64 µg/mL in data set [1], > 64 µg/mL in data set [2], > 64 µg/mL in the data set with MRSA (ATCC 25529) and 64 µg/mL (≈ 307 µM) in the data set on VRSA (clinical isolate). For the same compound, in data set [3], the “Gyr-B inhibition in words” value is “inactive”. The IC50 in data set [3] is > 100 µM. For the same compound, the “Antibacterial activity in words, all tested bacteria” value in data set [4] is “inactive”. The “Ddl-B inhibition in words” value in data set [6] is “inactive”.

Take `Cc1cc(O)c2c(c1)C(=O)c1cccc(O)c1C2=O` [Chrysophanol]: the MIC in data set [1] is 4 µg/mL (≈ 15.7 µM); in data set [2], 4 µg/mL (≈ 15.7 µM); in data set [4] it was 2 to 4 µg/mL (≈ 7.87 to 15.7 µM); in the data set with MRSA (ATCC 25529), > 64 µg/mL; in the data set on VRSA (clinical isolate), 4 µg/mL (≈ 15.7 µM). Besides, the IC50 turned out to be 1.5 ± 0.5 µM in data set [3] and 236 ± 8.9 µM in data set [6]. Moreover, the Ki in data set [3] was found to be 0.83 ± 0.2 µM; in data set [6] it was 105 ± 4.9 µM. This compound yielded a CC50 in data set [5] of 48.1 ± 1.39 µM. In addition, the “Ddl-B inhibition in words” value in data set [6] is “more potent”.

As for `Cc1cc(O)c2c(c1)C(=O)c1cc(O)cc(O)c1C2=O` [Emodin], the MIC in data set [1] is 2 µg/mL (≈ 7.4 µM); in data set [2], 2 µg/mL (≈ 7.4 µM); in data set [4], 2 to 4 µg/mL (≈ 7.4 to 14.8 µM); with MRSA (ATCC 25529), 2 µg/mL (≈ 7.4 µM); in the data set with VRSA (clinical isolate), 2 µg/mL (≈ 7.4 µM). Further, the IC50 in data set [3] is 0.81 ± 0.3 µM; in data set [6] (setting [7]), 216 ± 5.6 µM. In addition, the Ki in data set [3] amounted to 0.22 ± 0.1 µM; in data set [6] (read-out: Ki Ddl-B), 102 ± 4.8 µM. Besides, in data set [5], the midpoint of cytotoxicity, the CC50, lay at 49.2 ± 1.39 µM. Further, the “Ddl-B inhibition in words” value in data set [6] is on record as “more potent”.

Take `COc1ccc(Cc2nccc3cc(OC)c(OC)cc23)cc1OC` [Papaverine]: the MIC (in data set [1]; in data set [2]; in the data set on MRSA (ATCC 25529); in the data set on VRSA (clinical isolate)) was > 64 µg/mL each time. In addition, in data set [3], the IC50 was > 100 µM. Besides, the “Antibacterial activity in words, all tested bacteria” value in data set [4] is “inactive”. Besides, in data set [5], half-maximal cytotoxicity (CC50) was put at 36.8 ± 0.93 µM.

(Values after paper PMC8778091, “In Silico-Based Discovery of Natural Anthraquinones with Potential against Multidrug-Resistant E. coli” (Pharmaceuticals, 2022).)
